Data taken from US20080233191A1, “USE OF RANOLAZINE FOR ELEVATED BRAIN-TYPE NATRIURETIC PEPTIDE” (priority 2007, published 2008).

Tested on: patients with non-ST elevation ACS
Assay: MERLIN-TIMI 36 trial: randomized, double-blind, placebo-controlled; effect of ranolazine stratified by baseline BNP
Assay type: in vivo, human
Conditions: ranolazine vs placebo
Excerpt: Ranolazine is believed to exert anti-ischemic effects through a reduction in myocardial cellular sodium and calcium overload with a consequent reduction in wall stress. B-type natriuretic peptide (BNP) is released in response to increased wall stress and is a potent indicator of risk in acute coronary syndromes (ACS). This study was a prospective evaluation of the interaction between BNP and the effect of ranolazine as part of a randomized, double-blind, placebo-controlled trial.
Plasma BNP were measured (ADVIA® BNP) at baseline (N=4543), 14 days (N=4079), and the Final Visit (N=3328) of the patients with non-ST elevation ACS randomized to ranolazine or placebo in the MERLIN-TIMI 36 trial. Patients were stratified using BNP>80 pg/mL based upon prior work with this assay. The primary endpoint of the trial was a composite of cardiovascular death, myocardial infarction, or recurrent ischemia (CVD/Ml/Rl).

SMILES: COc1ccccc1OCC(O)CN1CCN(CC(=O)Nc2c(C)cccc2C)CC1 (racemic) [ranolazine, (±)-N-(2,6-dimethylphenyl)-4-[2-hydroxy-3-(2-methoxyphenoxy)propyl]-1-piperazine-acetamide]
- endpoint component of worsening angina, HR (BNP>80 pg/mL, CI 0.35-0.84, p=0.005): 0.55
- endpoint component of worsening angina, HR (BNP≦80 pg/mL, 95% CI 0.63-1.28, p=0.55): 0.90
- primary endpoint (composite of cardiovascular death, myocardial infarction, or recurrent ischemia), HR (patients with BNP>80 pg/mL, 95% CI 0.66-0.94, p=0.009): 0.79
- primary endpoint (composite of cardiovascular death, myocardial infarction, or recurrent ischemia), effect (patients with a negative BNP result, p-interaction=0.052): lack of detectable effect
